pIC50: −log10 of the molar value. Active and inactive are the calls of the source. The calls are words filed in the database; no cut-off is given here.
How the values were obtained:
[1] = tested on: Vero; test: Cytotoxicity against african green monkey Vero cells after 72 hrs by MTT assay; format: cell-based; conditions: Chlorocebus sabaeus
[2] = tested on: HepG2; test: cells; conditions: Homo sapiens, HepG2, 72 h
Description: (§1) Cytotoxicity against human HepG2 cells after 72 hrs by MTT assay

[3] = tested on: L929; test: Cytotoxicity against mouse L929 cells after 72 hrs by MTT assay; format: cell-based; conditions: L929, 72 h
[4] = tested on: DU-145; test: Cytotoxicity against human DU145 cells after 72 hrs by MTT assay; format: functional, cell-based; conditions: DU-145, 72 h
[5] = tested on: A549; test: Cytotoxicity against human A549 cells after 72 hrs by MTT assay; format: functional, cell-based; conditions: A549, 72 h
[6] = tested on: HeLa; test: cells; conditions: Homo sapiens, 72 h
Description: Cytotoxicity against human HeLa cells after 72 hrs by MTT assay

[7] = tested on: SH-SY5Y; test: Cytotoxicity against human SH-SY5Y cells after 72 hrs by MTT assay; format: functional, cell-based
[8] = tested on: SGC-7901; test: Cytotoxicity against human SGC7901 cells after 72 hrs by MTT assay; format: functional, cell-based; conditions: SGC-7901, 72 h
[9] = tested on: HepG2; test: Cytotoxicity against human HepG2 cells by MTT assay; format: functional, cell-based; conditions: TDE = time-dependent effect
[10] = tested on: HepG2; test: Induction of apoptosis in human HepG2 cells assessed as late apoptotic to necrotic cells at 2 uM after 48 hrs by annexinV/propidium iodide staining-based flow cytometric analysis (reference value: 1.61%); format: functional
[11] = tested on: HepG2; test: Induction of apoptosis in human HepG2 cells assessed as late apoptotic to necrotic cells at 0.5 uM after 48 hrs by annexinV/propidium iodide staining-based flow cytometric analysis (reference value: 1.61%); format: functional
[12] = tested on: HepG2; test: Induction of apoptosis in human HepG2 cells assessed as late apoptotic to necrotic cells at 1 uM after 48 hrs by annexinV/propidium iodide staining-based flow cytometric analysis (reference value: 1.61%); format: functional
[13] = tested on: HepG2; test: Cell cycle arrest in human HepG2 cells assessed as accumulation at S phase after 48 hrs by propidium iodide staining-based flow cytometric analysis; format: functional
[14] = tested on: HepG2; test: Induction of apoptosis in human HepG2 cells assessed as appearance of apoptotic bodies at 0.25 to 2 uM after 48 hrs by Hoechst staining-based microscopic analysis; format: functional, cell-based
[15] = tested on: HepG2; test: Induction of apoptosis in human HepG2 cells assessed as early apoptotic cells at 1 uM after 48 hrs by annexinV/propidium iodide staining-based flow cytometric analysis (reference value: 0.47%); format: functional
[16] = tested on: HepG2; test: Induction of apoptosis in human HepG2 cells assessed as early apoptotic cells at 2 uM after 48 hrs by annexinV/propidium iodide staining-based flow cytometric analysis (reference value: 0.47%); format: functional
[17] = tested on: HepG2; test: Cell cycle arrest in human HepG2 cells assessed as accumulation at subG1 after 48 hrs by propidium iodide staining-based flow cytometric analysis; format: functional
[18] = tested on: HepG2; test: Induction of apoptosis in human HepG2 cells assessed as early apoptotic cells at 0.5 uM after 48 hrs by annexinV/propidium iodide staining-based flow cytometric analysis (reference value: 0.47%); format: functional
[19] = tested on: HepG2; test: Induction of apoptosis in human HepG2 cells assessed as late apoptotic to necrotic cells at 0.25 uM after 48 hrs by annexinV/propidium iodide staining-based flow cytometric analysis (reference value: 1.61%); format: functional
[20] = tested on: HepG2; test: Induction of apoptosis in human HepG2 cells assessed as early apoptotic cells at 0.25 uM after 48 hrs by annexinV/propidium iodide staining-based flow cytometric analysis (reference value: 0.47%); format: functional
[21] = tested on: HepG2; test: Inhibition of DNA topoisomerase 2beta mRNA expression in human HepG2 cells at 0.5 to 8 uM after 6 hrs by RT-PCR analysis; format: functional, cell-based
[22] = tested on: HepG2; test: Inhibition of DNA topoisomerase 2alpha protein expression in human HepG2 cells at 0.5 to 1 uM after 48 hrs by Western blot analysis; format: functional, cell-based
[23] = tested on: HepG2; test: Induction of apoptosis in human HepG2 cells assessed as […] of nuclear fragment at 0.25 to 2 uM after 48 hrs by Hoechst staining-based microscopic analysis; format: functional, cell-based
[24] = tested on: HepG2; conditions: Homo sapiens
Description: as §1

Compound | pIC50 [1] | pIC50 [2] | pIC50 [3] | pIC50 [4] | pIC50 [5] | pIC50 [6] | pIC50 [7] | pIC50 ([8]; read-out: IC50) | other results
COc1cc([C@@H]2c3cc4c(cc3[C@@H](Nc3nnc(-c5ccco5)o3)[C@H]3COC(=O)[C@H]23)OCO4)cc(OC)c1OC | < 4.00 | 4.41 | < 4.00 | 4.45 | 4.16 | 4.23 | 4.53 | – | –
O=c1[nH]cc(F)c(=O)[nH]1 [FLUOROURACIL] | < 4.00 | 4.49 | 5.86 | 4.91 | – | 4.80 | 5.96 | – | pIC50 [8]: 4.84
COc1cc([C@@H]2c3cc4c(cc3[C@@H](Nc3nnc(C)o3)[C@H]3COC(=O)[C@H]23)OCO4)cc(OC)c1OC | 5.26 | 5.82 | 4.71 | < 4.00 | < 4.00 | 5.57 | 4.83 | 4.42 | inhibition [9]: tde; Activity [10]: 30.27%; Activity [11]: 2.77%; Activity [12]: 9.51%; Activity [13]: Dose-dependent effect; Activity [14]: Active; Activity [15]: 8.03%; Activity [16]: 20.68%; Activity [17]: Dose-dependent effect; Activity [18]: 1.45%; Activity [19]: 1.31%; Activity [20]: 0.62%; inhibition [21]: Active; inhibition [22]: Active; Activity [23]: Active; inhibition [24]: Dose-dependent effect
COc1cc([C@@H]2c3cc4c(cc3[C@@H](O[C@@H]3O[C@@H]5CO[C@@H](C)O[C@H]5[C@H](O)[C@H]3O)[C@H]3COC(=O)[C@H]23)OCO4)cc(OC)c1O [ETOPOSIDE] | 4.51 | 5.26 | 6.00 | 4.19 | 4.99 | 4.02 | 5.27 | 4.92 | –
COc1cc([C@@H]2c3cc4c(cc3[C@H](O)[C@H]3COC(=O)[C@H]23)OCO4)cc(OC)c1OC [PODOFILOX] | 5.75 | 5.64 | 5.86 | < 4.00 | 4.87 | 5.12 | 5.60 | 5.53 | –
COc1cc([C@@H]2c3cc4c(cc3[C@@H](Nc3nnc(-c5ccncc5)o3)[C@H]3COC(=O)[C@H]23)OCO4)cc(OC)c1OC | < 4.00 | 4.02 | 4.69 | < 4.00 | < 4.00 | < 4.00 | 4.38 | < 4.00 | –
COc1cc([C@@H]2c3cc4c(cc3[C@@H](Nc3nnc(-c5ccccc5)o3)[C@H]3COC(=O)[C@H]23)OCO4)cc(OC)c1OC | < 4.00 | 4.13 | < 4.00 | < 4.00 | – | 4.07 | 4.57 | < 4.00 | –
COc1ccc(-c2nnc(N[C@@H]3c4cc5c(cc4[C@@H](c4cc(OC)c(OC)c(OC)c4)[C@H]4C(=O)OC[C@@H]43)OCO5)o2)cc1 | 5.13 | 4.55 | 4.74 | 4.12 | 4.27 | 4.75 | 5.13 | < 4.00 | –
COc1cc([C@@H]2c3cc4c(cc3[C@@H](Nc3nnc(C)o3)[C@H]3COC(=O)[C@H]23)OCO4)cc(OC)c1O | 4.34 | 4.75 | 5.32 | 4.22 | < 4.00 | 4.73 | 5.34 | 5.01 | –
COc1cc([C@@H]2c3cc4c(cc3[C@@H](Nc3nnco3)[C@H]3COC(=O)[C@H]23)OCO4)cc(OC)c1OC | 4.81 | 4.93 | 4.36 | 4.95 | < 4.00 | < 4.00 | 4.59 | < 4.00 | –
COc1cc([C@@H]2c3cc4c(cc3[C@@H](Nc3nnc(-c5cccnc5)o3)[C@H]3COC(=O)[C@H]23)OCO4)cc(OC)c1OC | < 4.00 | 4.14 | 4.26 | < 4.00 | < 4.00 | < 4.00 | 4.65 | < 4.00 | –
COc1cc([C@@H]2c3cc4c(cc3[C@@H](Nc3nnc(-c5ccc([N+](=O)[O-])cc5)o3)[C@H]3COC(=O)[C@H]23)OCO4)cc(OC)c1OC | – | < 4.00 | < 4.00 | < 4.00 | – | < 4.00 | 4.78 | < 4.00 | –
COc1cc([C@@H]2c3cc4c(cc3[C@@H](Nc3nnc(-c5cccs5)o3)[C@H]3COC(=O)[C@H]23)OCO4)cc(OC)c1OC | < 4.00 | 4.41 | 4.15 | < 4.00 | < 4.00 | 4.37 | 4.70 | 4.25 | –

Source: ChEMBL document CHEMBL2046310, “Synthesis and biological evaluation of novel 4β-(1,3,4-oxadiazole-2-amino)-podophyllotoxin derivatives” (Bioorg Med Chem Lett, 2012)
